Tested on: melanoma patient PBMC samples WM35, WM3457 and 3451
Test: Proliferative response, 3HTdR incorporation assay with peptide-pulsed monocytes
Type: cell-based, human
Details: monocytes pulsed 8 hours with 25 μM peptide, cultured with PBMC for 5 days; each sample assayed
Description: The peptides were screened for T-helper sequences (Th): Peptide P8 is amino acids residues 608-622 of BRAF, i.e., […] (SEQ ID NO: 15). Peptide P9 is amino acids residues […] of BRAF, i.e., […] (SEQ ID NO: 16). Peptide P10 is amino acids residues […] of BRAF, i.e., […] (SEQ ID NO: 17). These peptides bind to HLA-DR alleles using computer algorithms, as disclosed in Example 1 below. Proliferative responses were determined by standard ^3HTdR incorporation assay.
A number of such peptides were assayed as follows: Adherent monocytes (5×10^4/well) were pulsed for 8 hours with synthetic peptides (25 μM): Peptide 8 (SEQ ID NO:15), Peptide 9 (SEQ ID NO:16), and Peptide 10 (SEQ ID NO: 17). At the end of incubation, excess peptides were removed and the monocytes were cultured with one of three melanoma patient PBMC samples labeled WM35, WM3457 and 3451 (1×10^5) for 5 days.
Data are expressed as mean cpm (triplicate determinations) plus SD (bar) of ^3HTdR incorporation.

| Sequence | Proliferative response (3HTdR incorporation, mean cpm) versus control peptide |
| --- | --- |
| SHQFEQLSGSILWHA (listed as Homo sapiens) [Peptide 8] | Significantly (p<0.01) different values compared to control |
| EDLTVKIGDFGLATV (listed as Homo sapiens) [Peptide 9] | Significantly (p<0.01) different values compared to control |
